Target: T1, ABCG2 (Homo sapiens, UniProt Q9UNQ0)
T1 sequence (Q9UNQ0 1-655): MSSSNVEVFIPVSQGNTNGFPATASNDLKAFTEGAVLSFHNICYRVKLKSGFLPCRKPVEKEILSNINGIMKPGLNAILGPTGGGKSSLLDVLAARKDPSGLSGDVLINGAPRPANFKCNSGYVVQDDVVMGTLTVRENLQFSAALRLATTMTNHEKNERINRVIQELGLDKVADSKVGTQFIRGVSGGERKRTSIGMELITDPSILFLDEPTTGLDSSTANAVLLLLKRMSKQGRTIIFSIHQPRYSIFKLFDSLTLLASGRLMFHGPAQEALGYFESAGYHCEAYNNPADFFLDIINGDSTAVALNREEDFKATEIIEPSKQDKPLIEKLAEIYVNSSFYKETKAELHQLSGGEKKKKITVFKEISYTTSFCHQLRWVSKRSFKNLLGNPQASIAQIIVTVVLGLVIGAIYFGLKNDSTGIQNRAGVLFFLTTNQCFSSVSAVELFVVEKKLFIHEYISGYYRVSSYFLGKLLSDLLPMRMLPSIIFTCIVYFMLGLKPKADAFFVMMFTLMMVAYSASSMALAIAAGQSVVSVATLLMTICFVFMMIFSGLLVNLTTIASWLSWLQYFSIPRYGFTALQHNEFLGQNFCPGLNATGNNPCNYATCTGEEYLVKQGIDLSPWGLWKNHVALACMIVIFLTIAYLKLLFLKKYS
Assay: fluorescent substrate efflux/accumulation by flow cytometry
Format: cell-based

C=Cc1c(C)c2cc3nc(c4c5[nH]c(cc6nc(cc1[nH]2)C(C)=C6CC)c(C)c5C(=O)[C@@H]4C(=O)OC)[C@@H](CCC(=O)O)[C@@H]3C [pheophorbide A]
fluorescent substrate efflux/accumulation by flow cytometry (1 μM PhA): The intracellular accumulation of pheophorbide A (PhA), a known fluorescent substrate drug of ABCG2, was determined

From PMC10506422 (Biomedicine & pharmacotherapy = Biomedecine & …, 2022)
